Measured values as given in US20210198277A1, “AMINE-SUBSTITUTED ARYL OR HETEROARYL COMPOUNDS” (Epizyme, Inc., priority 2016, published 2021).
pIC50: −log10 of the molar value. Like-named read-outs stand apart in the source and are kept apart here.

Target: T1, human EHMT2 913-1193 (Homo sapiens, UniProt Q96KQ7)
T1 construct: recombinant purified human EHMT2 913-1193, Viva; purchased Viva
T1 sequence (Q96KQ7 913-1193): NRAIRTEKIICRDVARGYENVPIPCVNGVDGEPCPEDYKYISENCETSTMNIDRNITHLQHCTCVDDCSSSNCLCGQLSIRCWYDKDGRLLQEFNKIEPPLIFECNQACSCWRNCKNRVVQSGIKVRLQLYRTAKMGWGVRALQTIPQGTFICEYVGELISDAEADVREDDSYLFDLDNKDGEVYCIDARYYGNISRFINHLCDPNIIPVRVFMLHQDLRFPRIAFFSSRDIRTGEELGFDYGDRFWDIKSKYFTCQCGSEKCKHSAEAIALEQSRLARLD
Assay: EHMT2 enzyme assay on histone peptide substrate (EHMT2 PEP)
Type: biochemical
Conditions: for IC50: recombinant human EHMT2 913-1193, histone H3 1-15 peptide, balanced conditions, read-out: EHMT2 PEP (IC50 μM); for pIC50: Table VII, read-out: EHMT2 PEP IC50
Method in brief: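 Radiometric methyltransferase read-out: ^3H-methyl transfer from ^3H-SAM onto biotinylated histone peptide, captured on streptavidin Flashplates after 60 min reaction at room temperature. Enzyme 0.031 nM, preincubated 30 min with inhibitor; buffer 20 mM Bicine pH 7.5 with 1 mM TCEP; top compound concentration 50 μM final, 2% DMSO.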

Compound	IC50 [µM]	pIC50
CNc1nc(C2CCN(C(C)C)CC2)c2cc(OC)c(OC[C@@H]3CCN(C4CC4)C3)cc2n1 [Compound 526]	< 0.1	
COc1cc2c(C3CCN(C)CC3)nc(N3CCCC3)nc2cc1OCCCN1CCCC1 [Compound 527]	< 0.1	
COc1cc2c(C3CCN(C)CC3)nc(N3CCC(F)(F)CC3)nc2cc1OCCCN1CCCC1 [Compound 528]	0.1 to 1	
COc1cc2c(C3CCN(C)CC3)nc(NC3CCCC3)nc2cc1OCCCN1CCCC1 [Compound 529]	< 0.1	
CNc1nc(C2CCN(C(C)C)CC2)c2cc(OC)c(OCCCN3CCCC3)cc2n1 [Compound 530]	< 0.1	
CNc1nc(C2CCN(C)CC2)c2cc(OC)c(OCCCN3CC4CC4C3)cc2n1 (stereo not drawn) [Compound 532]	< 0.1	
CNc1nc(C2CCN(CCO)CC2)c2cc(OC)c(OCCCN3CCCC3)cc2n1 [Compound 533]	< 0.1	
CNc1nc(C2CC(C)(C)NC(C)(C)C2)c2cc(OC)c(OCCCN3CCCC3)cc2n1 [Compound 534]	1 to 10	
CNc1cc(C2CCN(C)CC2)c2cc(OC)c(OCCCN3CCCC3)cc2n1 [Compound 535]	< 0.1	
COc1cc2c(C3CCN(C)CC3)cc(C)nc2cc1OCCCN1CCCC1 [Compound 536]	< 0.1	

The next lines start with the values.

IC50 [µM]	pIC50	Compound
> 10		CCCCNc1nccc(NC)n1 [Compound 543, N^2-butyl-N^4-methylpyrimidine-2,4-diamine]
	6.00 to 7.00	CNc1cc(C)nc(Nc2ccc(OC)c(OC[C@@H](O)CN3CCCC3)c2)n1 [Compound 1044]
	> 7.00	CNc1cc(C)nc(Nc2ccc(OC)c(OC[C@H](O)CN3CCCC3)c2)n1 [Compound 1045]
	5.00 to 6.00	CNc1ccnc(Nc2ccc(OC)c(OC[C@@H](O)CN3CCC3)c2)n1 [Compound 1046]
	> 7.00	CNc1cc(C2CCOCC2)c2cc(OC)c(OC[C@H](O)CN3CCC3)cc2n1 [Compound 1108]
	5.00 to 6.00	CNc1cc(C)nc(Nc2ccc(OC)c(CNCCNC3CCC3)c2)n1 [Compound 1109]
	6.00 to 7.00	CNc1cc(C)nc(Nc2cnc(OC)c(CNCCN3CCC3)c2)n1 [Compound 1110]
	> 7.00	CNc1cc(C2CCOCC2)c2cc(OC)c(CNCCN3CCCC3)cc2n1 [Compound 1111]
	6.00 to 7.00	CNc1cc(C)nc(Nc2ccc(OC)c(OC[C@H](O)CN(C)C)c2)n1 [Compound 1112]
	6.00 to 7.00	CCN(C)C[C@@H](O)COc1cc(Nc2nc(C)cc(NC)n2)ccc1OC [Compound 1113]
	< 5.00	CNc1cc(C)nc(Nc2ccc(C)c(C(=O)NCc3ccon3)c2)n1 [Compound 1114]
